The values that follow come from patent US11419865B2, “Method for inducing a sustained immune response” (Cytocom Inc., priority 2016, dated 2022).

Structures are written as SMILES.

Data set [1] deals with advanced pancreatic cancer. The following applies: cited from earlier work.
The subject of data set [2] is IBS patients. As to the kind of experiment: open-label study in forty-two IBS patients. In kind it is in vivo, human. On the procedure:
Forty-two IBS patients participated in an open-label study. Participants received 0.5 mg PTI-901/day for 4 weeks and were evaluated during baseline, during treatment, and at 4-week follow-up. Patients recorded degree of abdominal pain, stool urgency, consistency, and frequency. Primary outcomes were number of pain-free days and overall symptom relief, evaluated by a global assessment score. Data were analyzed per protocol. Global assessment improved in 76% of 42 patients. During treatment, the mean weekly number of pain-free days increased from 0.5+/−1 to 1.25+/−2.14 (P=0.011).

Turning to `O=c1[nH]cc(F)c(=O)[nH]1` [5-fluorouracil (5-FU), 5-fluorouracil], in data set [1], the “Clinical benefit response, historical controls” value is 4.8%.

On to `Cl.O=C1CC[C@@]2(O)[C@H]3Cc4ccc(O)c5c4[C@@]2(CCN3CC2CC2)[C@H]1O5` [PTI-901], for which the adverse reactions result in data set [2] (0.5 mg/day for 4 weeks) is given as “no significant adverse reactions”. Also, in data set [2] (0.5 mg/day for 4 weeks, 42 patients), the “patients with improved global assessment” value was determined as 76%. Besides, the “mean weekly number of pain-free days during treatment” value in data set [2] (0.5 mg/day, baseline 0.5+/−1, P=0.011) came out at 1.25 ± 2.14 days.

As to `Nc1ccn([C@@H]2O[C@H](CO)[C@@H](O)C2(F)F)c(=O)n1` [gemcitabine], the “Clinical benefit response, historical controls” value in data set [1] is 23.8%.
